Source: paper PMC6215199 (Toxins, 2018)
Entries after “also recorded” stand apart in the source; their conditions may differ.

Assays:
Batx-I [1] = target: T1, Batx-I (Bothrops atrox, UniProt P0DJE1); assay: biochemical; format: biochemical
Batx-I [2] = target: T1, Batx-I; format: biochemical
Batx-I [3] = target: T1, Batx-I; details: cited from earlier work
BaP1 = details: EDTA chelates the catalytic Zn2+ ion; cited from earlier work

T1 sequence (P0DJE1 whole entry, looked up): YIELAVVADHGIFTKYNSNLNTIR

SMILES | IC50 (Batx-I [1]) | Type of inhibition (Batx-I [2]) | ΔG^∘ Experimental (Batx-I [2]) | also measured
C=C(C)[C@@H]1CC[C@]2(CO)CC[C@]3(C)[C@H](CC[C@@H]4[C@@]5(C)CC[C@H](O)C(C)(C)[C@@H]5CC[C@]43C)[C@@H]12 [Betulin] | 1470 ± 130 µM | – | – | Inhibition of metalloproteinase proteolytic activity (in words) (Batx-I [1]): negligible activity
C=C(C)[C@@H]1CC[C@]2(C(=O)O)CC[C@]3(C)[C@H](CC[C@@H]4[C@@]5(C)CC[C@H](O)C(C)(C)[C@@H]5CC[C@]43C)[C@@H]12 [Betulinic acid] | 115 ± 16 µM | competitive inhibitors | -4.5 ± 0.1 kcal/mol | –
O=C(O)CN(CCN(CC(=O)O)CC(=O)O)CC(=O)O [EDTA, Ethylenediamine-tetraacetic acid] | – | – | – | Effect on proteolytic activity of Batx-I (Batx-I [3]): eliminated; Effect on proteolytic activity of BaP1 (BaP1): eliminated
C[C@H]1[C@H](C)CC[C@]2(C(=O)O)CC[C@]3(C)C(=CC[C@@H]4[C@@]5(C)C[C@@H](O)[C@H](O)[C@@](C)(CO)[C@@H]5[C@H](O)C[C@]43C)[C@H]12 [Madecassic acid] | 540 ± 80 µM | – | – | –
CC1(C)CC[C@]2(C(=O)O)CC[C@]3(C)C(=CC[C@@H]4[C@@]5(C)CC[C@H](O)C(C)(C)[C@@H]5CC[C@]43C)[C@@H]2C1 [Oleanolic acid] | 360 ± 70 µM | competitive inhibitors | -3.7 ± 0.1 kcal/mol | –
C[C@H]1[C@H](C)CC[C@]2(C(=O)O)CC[C@]3(C)C(=CC[C@@H]4[C@@]5(C)CC[C@H](O)C(C)(C)[C@@H]5CC[C@]43C)[C@H]12 [Ursolic acid] | 220 ± 40 µM | competitive inhibitors | -3.5 ± 0.1 kcal/mol | –
CC1CCC2(C)CCC3(C)C(=CCC4C5(C)CCC(O)C(C)(C(=O)O)C5CCC43C)C2C1C (stereo not drawn) [β -Boswellic acid] | – | – | – | Inhibition of metalloproteinase proteolytic activity (in words) (Batx-I [1]): negligible activity; also recorded: does not inhibit; activity at 2000 µM (Batx-I [1]; read-out: Batx-I proteolytic activity still observed): 70%
